Our source for the absorption maximum values is the Deep4Chem optical property database.

Structures are written as SMILES. Several values for one entry are separate records, joined by “and”; a condition that tells them apart may be missing. Equal entries are not always repeated.

The nature of this data set: solvent given as SMILES.

Regarding `CC1=[N+]2C(=C(c3ccc(C(=O)c4ccccc4)cc3)c3ccc(C)n3[B-]2(F)F)C=C1c1cc2n(c1)[B-](F)(F)[N+]1=CC=CC1=C2c1c(C)cc(C)cc1C`, the absorption maximum is listed as 599 nm (in C1CCCCC1) and 601.5 nm (in CCOC(C)=O).
`COc1ccc(-c2ccc(-c3ccccc3)cc2)cc1` came in with an absorption maximum (in C1CCCCC1) of 291 nm.
As for `Cc1ccccc1C1=C2C=c3c(oc4c3ccc3ccccc34)=[N+]2[B-](F)(F)n2c1cc1c3ccc4ccccc4c3oc12`, the absorption maximum is, setting by setting: (in C1CCCCC1) 613 nm; (in CCOC(C)=O) 607 nm; (in CO) 605.5 nm.
As for `O=c1[nH]c(=O)c2scc([C@H]3C[C@H](O)[C@@H](CO)O3)c2[nH]1`, the absorption maximum runs as follows: (in CC#N) 296 nm; (in CCOC(C)=O) 296 nm; (in CO) 294 nm; (in O) 294 nm.
Regarding `OB(O)c1ccc(-c2ccc(N(c3ccccc3)c3ccccc3)cc2)cc1`, the absorption maximum (in C1CCCCC1) is given as 332.8 nm; the absorption maximum (in C1CCOC1) was 331 nm; the absorption maximum (in CCO) was 329.6 nm; the absorption maximum (in CCOCC) was determined as 330 nm; the absorption maximum (in CO) came to 326 nm.
The molecule `N#Cc1ccc(-c2ccc3c(c2)c2cc(-c4ccc(C#N)cc4)ccc2c2c3nc(-c3ccc(-c4ccc(N(c5ccccc5)c5ccccc5)cc4)cc3)n2-c2ccccc2)cc1` registered an absorption maximum (in C1CCOC1) of 360.44 nm, an absorption maximum (in CC#N) of 360.44 nm, an absorption maximum (in CCCCCC) of 370.05 nm and an absorption maximum (in CCOCC) of 366.21 nm.
Consider `CCCCC(CC)COc1cc(OCC(CC)CCCC)c2c#cc3ccc4c(c3)c3cc(c#cc5cc(c#cc6ccc7c(c6)c6cc(c#cc1c2)ccc6n7CC(CC)CCCC)c(C(CCCC)OCCC)cc5C(CCCC)OCCC)ccc3n4CC(CC)CCCC` (stereo not drawn), for which the absorption maximum (in ClCCl) is on record as 340 nm.
The same measure, in the same setting: as for `FC(F)(F)c1ccc(/C2=C3N=C(C(c4ccccc4)=C/3c3ccccc3)/C(c3ccc(C(F)(F)F)cc3)=c3\[nH]/c(c(-c4ccccc4)c3-c3ccccc3)=C(/c3ccc(C(F)(F)F)cc3)C3=N/C(=C(/c4ccc(C(F)(F)F)cc4)c4[nH]c2c(-c2ccccc2)c4-c2ccccc2)C(c2ccccc2)=C3c2ccccc2)cc1`, the figure is 708 nm.
For `CCC12C(=C3C(=C4c5ccc(-c6ccc(C)s6)cc5S(=O)(=O)C41CC)C(F)(F)C(F)(F)C3(F)F)c1ccc(-c3ccc(C)s3)cc1S2(=O)=O` (stereo not drawn), the absorption maximum by setting is: (in C1COCCO1) 506 nm; (in CC#N) 507 nm; (in CCCCCC) 489 nm; (in CCO) 508 nm; (in CS(C)=O) 525.37 nm; (in ClC(Cl)(Cl)Cl) 497.35 nm. Under “in ClCCl”, this molecule came in with an absorption maximum of 507.67 nm.
For the molecule `O=c1oc2ccccc2cc1-c1cn2ccccc2n1`, under “in ClC(Cl)Cl”, the absorption maximum turned out to be 349 nm.
The molecule `CC/[NH+]=c1\cc2oc3cc(NCCC(=O)NCCCCC(NC(C)=O)C(=O)OC)c4ccccc4c3nc-2cc1C` (stereo not drawn) showed an absorption maximum (in CCO) of 590 nm and an absorption maximum (in O) of 590 nm.
Take `COCCOCCOCCNc1cc2c3c(c(NCCOCCOCCOC)cc4c3c1C(=O)N(CCOCCOCCOC)C4=O)C(=O)N(CCOCCOCCOC)C2=O`: the absorption maximum is, setting by setting: (in CO) 605 nm; (in ClC(Cl)Cl) 610 nm; (in O) 623 nm.
With `Cc1c(C)c2c3ccccc3[nH]c2c2ccccc12`, where the note is “in ClCCl”, the absorption maximum is listed as 302 nm.
The same measure, in the same setting: the result for `Cc1ccc(-n2c(-c3ccc(N(c4ccc(-c5ccc(N(c6ccc(-c7nc8c9ccccc9c9ccccc9c8n7-c7ccc(C)cc7)cc6)c6ccc(-c7nc8c9ccccc9c9ccccc9c8n7-c7ccc(C)cc7)cc6)cc5)cc4)c4ccc(-c5nc6c7ccccc7c7ccccc7c6n5-c5ccc(C)cc5)cc4)cc3)nc3c4ccccc4c4ccccc4c32)cc1` reads 376 nm.
In the case of `CCCC1=Cc2nc1ccc1[nH]c(cc1CCC)c1nc(c(OC)cc3[nH]c2cc3CCC)C(CCC)=C1`, the absorption maximum (in Cc1ccccc1) was 682 nm.
For the setting “in C1COCCO1”, `COC(=O)c1ccc(/C=C2\N=C(c3ccccc3)OC2=O)cc1` registered an absorption maximum of 370 nm.
Turning to `O=P(c1ccccc1)(c1ccccc1)c1ccc(-n2c(-c3ccccc3P(=O)(c3ccccc3)c3ccccc3)nc3ccccc32)cc1`, where the note is “in ClCCl”, the absorption maximum is on record as 300 nm.
Regarding `CCN(CC)c1ccc(/C=C/c2cc(/C=C/c3ccc(N(CC)CC)cc3)nc(N)n2)cc1`, the absorption maximum worked out at 418 nm (in Cc1ccccc1) and 433 nm (in ClC(Cl)Cl).
In the case of `CN(C)c1ccc2nc(-c3ccc(C(=O)O)cc3)sc2c1`, the absorption maximum is, setting by setting: (in C1CCCCC1) 387 nm; (in CC#N) 390 nm; (in CC(C)O) 374 nm; (in CO) 377 nm; (in CS(C)=O) 400 nm; (in ClC(Cl)Cl) 400 nm. Further, the absorption maximum (in c1ccccc1) is reported as 394 nm.
Where the note is “in C1CCCCC1”, `COc1ccc(-c2ccc(-c3ccc(C#N)cc3)cc2)cc1` had an absorption maximum of 305 nm.
For the molecule `Cc1ccc(C(=O)NC(C)(C)C)c2c1ccc1c3ccccc3c3ccccc3c12`, the absorption maximum (in ClCCl) is 335 nm.
Consider `O=C(O)CCCc1ccc2ccc3cccc4ccc1c2c34`, for which the absorption maximum (in CO) amounted to 375 nm.
For the molecule `[O-][n+]1c(-c2ccccc2)cc(N2CCOCC2)nc1/C=C/c1ccccc1`, the absorption maximum (in ClCCl) is reported as 445 nm.
Turning to `COc1cc(C=O)cc(-c2[nH]c(=O)n3c2-c2ccccc2C3=O)c1O`, the absorption maximum was 390 nm (in CC#N), 398 nm (in CO) and 390 nm (in ClCCl).
Turning to `CCC1=C(C)C2=C(/C=C/c3ccc([N+](=O)[O-])cc3)c3c(C)c(CC)c(/C=C/c4ccc(OC)cc4)n3[B-](F)(F)[N+]2=C1/C=C/c1ccc(OC)cc1`, the absorption maximum (in ClCCl) is listed as 666 nm.
For the setting “in O”, `CC[N+]1(CC)CN2C(=N1)C(C(=O)O)=Cc1cc(Cl)ccc12` yielded an absorption maximum of 377 nm.
`COc1cc(C=C(C#Cc2ccccc2)C#Cc2ccccc2)c(OC)cc1C=C(C#Cc1ccccc1)C#Cc1ccccc1` had an absorption maximum (in ClC(Cl)Cl) of 455 nm.
With `CC1=CC(C)=[N+]2C1=C(c1ccc(N3CCCCC3)cc1)c1c(C)cc(C)n1[B-]2(F)F`, the absorption maximum is, setting by setting: (in C1CCOC1) 499 nm; (in CC#N) 496 nm; (in CC(=O)C(C)(C)C) 496 nm; (in CC(C)=O) 495 nm; (in CCCCCC) 500 nm; (in CCOC(C)=O) 498 nm. Moreover, the absorption maximum (in CO) is 500 nm and 497 nm.
`COc1ccc(C2=C(c3ccc(OC)cc3)C(C)(C)c3c2ccc2ccccc32)cc1` yielded an absorption maximum (in C1CCCCC1) of 336 nm.
Turning to `CC(C)(C)NS(=O)(=O)c1ccc2c(c1)C(=O)/C(=C1\Sc3ccc(S(=O)(=O)NC(C)(C)C)cc3C1=O)S2`, the absorption maximum is, setting by setting: (in C1COCCO1) 538 nm; (in CN(C)C=O) 543 nm; (in CS(C)=O) 546 nm.
For `C[C@]12SC(=O)C=C1c1nc(-c3ccc(Cl)cc3Cl)[nH]c1C1=CC(=O)S[C@@]12C`, for the setting “in CC#N”, the absorption maximum turned out to be 475 nm.
As to `CCCCCCC1(CCCCCC)c2cc(-c3nc(-c4ccc5c(c4)C(CCCCCC)(CCCCCC)c4cc(N6c7ccccc7Sc7ccccc76)ccc4-5)nc(-c4ccc5c(c4)C(CCCCCC)(CCCCCC)c4cc(N6c7ccccc7Sc7ccccc76)ccc4-5)n3)ccc2-c2ccc(N3c4ccccc4Sc4ccccc43)cc21`, the absorption maximum (in C1CCOC1) is on record as 400 nm.
Take `CC/[NH+]=c1\cc2oc3cc(NCCC(=O)NC(C)C(=O)OC)c4ccccc4c3nc-2cc1C` (stereo not drawn): under “in CCO”, the absorption maximum is 590 nm.
For the setting “in ClC(Cl)Cl”, `COc1ccc(-c2ncc3ccccn23)cc1` came in with an absorption maximum of 306 nm.
Consider `COc1cccc(OC)c1C1=C2C(C)=CC(C)=[N+]2[B-](F)(F)n2c(C)cc(C)c21`, for which the absorption maximum (in C1CCOC1) came to 506 nm; the absorption maximum (in CC#N) was determined as 500 nm; the absorption maximum (in CC(=O)C(C)(C)C) amounted to 505 nm; the absorption maximum (in CC(C)=O) turned out to be 503 nm; the absorption maximum (in CCCCCC) is given as 507 nm; the absorption maximum (in CCOC(C)=O) came out at 504 nm. For the same molecule, the absorption maximum (in CO) is listed as 503 nm.
As for `CCCCCCCCC1(CCCCCCCC)c2cc(-c3ccccc3)ccc2-c2ccc(-c3ccccc3)cc21`, the absorption maximum (in ClC(Cl)Cl) is 327 nm.
Turning to `F[B-]1(F)n2c(c3ccccc3c2-c2ccccc2)C=C2c3ccccc3C(c3ccccc3)=[N+]21`, the absorption maximum runs as follows: (in C1CCOC1) 640 nm; (in ClCCl) 634 nm.
In turn, `CN(C)c1ccc(C2=C3C=C(c4ccc(C=O)cc4)S[C@]34c3ccccc3[C@H]2c2ccccc24)cc1` gave an absorption maximum (in ClCCl) of 464 nm.
As for `CN(C)c1ccc2c(-c3ccc(C(=O)[O-])cc3C(=O)[O-])c3ccc(=[N+](C)C)cc-3oc2c1`, the absorption maximum reads like this: (in CCO) 540 nm; (in O) 548 nm.
As for `COC(=O)c1cccc2c1C#Cc1c(NC(C)=O)cccc1OCCCO2`, the absorption maximum is reported as 335 nm (in CC#N) and 341 nm (in ClCCl).
Regarding `COC(=O)c1c(-c2cc3ccccc3oc2=O)nn(-c2cccc(F)c2)c1C(=O)OC`, the absorption maximum (in ClCCl) is on record as 323 nm.
`O=C1c2ccc3c4c(NC5CCCCC5)cc5c6c(ccc(c7c(NC8CCCCC8)cc(c2c37)C(=O)N1C1CCCCC1)c64)C(=O)N(C1CCCCC1)C5=O` gave an absorption maximum (in ClC(Cl)Cl) of 703 nm.
Consider `Cn1c(=O)c(/N=N/c2ccc(Nc3ccccc3)c(S(=O)(=O)O)c2)c(O)c2ccccc21`, for which the absorption maximum by setting is: (in C1CCOC1) 412 nm; (in CC(C)=O) 407 nm; (in CCOC(C)=O) 411 nm; (in CO) 400 nm; (in CS(C)=O) 396 nm; (in Cc1ccccc1) 414 nm. Moreover, the absorption maximum is, setting by setting: (in ClCCl) 415 nm; (in O) 385 nm.
Take `CC(C)Nc1cc(F)c(C(=O)c2cc(F)c(NC(C)C)cc2F)cc1F`: the absorption maximum (in CCO) is 357 nm.
The molecule `CCN(CC)c1ccc(Nc2cc3oc(-c4ccc(C#N)cc4)nc3c3ccccc23)c(C)c1` showed an absorption maximum (in C1COCCO1) of 415 nm.
Molecule `CC(C)(C)c1ccc(C2=c3sc4ccccc4c3=[N+]3C2=Nc2c(-c4ccc(C(C)(C)C)cc4)c4sc5ccccc5c4n2[B-]3(F)F)cc1` yielded an absorption maximum (in C1CCOC1) of 709 nm, an absorption maximum (in Cc1ccccc1) of 715 nm and an absorption maximum (in ClC(Cl)Cl) of 711 nm.
